Source: patent US9695154B2, “Heteroaryl inhibitors of sumo activating enzyme” (MILLENNIUM PHARMACEUTICALS, INC., priority 2013, dated 2017)

Target: T1, recombinant human SAE enzyme (Homo sapiens, UniProt Q9UBT2)
T1 sequence (Q9UBT2 1-640): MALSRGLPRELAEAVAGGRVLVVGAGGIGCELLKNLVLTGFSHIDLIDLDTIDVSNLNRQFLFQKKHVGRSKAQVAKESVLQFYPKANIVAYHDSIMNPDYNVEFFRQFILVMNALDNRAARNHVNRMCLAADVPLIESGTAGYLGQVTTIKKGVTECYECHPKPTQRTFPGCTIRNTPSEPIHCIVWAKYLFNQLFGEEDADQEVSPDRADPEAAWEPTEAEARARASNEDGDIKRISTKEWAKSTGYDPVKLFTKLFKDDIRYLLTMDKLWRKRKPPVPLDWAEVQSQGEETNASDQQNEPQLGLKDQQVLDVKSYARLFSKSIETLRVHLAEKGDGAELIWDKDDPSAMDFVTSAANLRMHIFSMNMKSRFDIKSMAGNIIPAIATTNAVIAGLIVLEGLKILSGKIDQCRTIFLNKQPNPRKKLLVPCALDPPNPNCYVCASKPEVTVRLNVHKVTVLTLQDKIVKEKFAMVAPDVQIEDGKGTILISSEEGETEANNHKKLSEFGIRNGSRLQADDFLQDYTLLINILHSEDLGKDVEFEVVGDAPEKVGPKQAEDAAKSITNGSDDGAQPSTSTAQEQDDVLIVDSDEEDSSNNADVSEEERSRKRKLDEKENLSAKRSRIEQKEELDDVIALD
T1 sequence (Q9UBE0 1-346 partner): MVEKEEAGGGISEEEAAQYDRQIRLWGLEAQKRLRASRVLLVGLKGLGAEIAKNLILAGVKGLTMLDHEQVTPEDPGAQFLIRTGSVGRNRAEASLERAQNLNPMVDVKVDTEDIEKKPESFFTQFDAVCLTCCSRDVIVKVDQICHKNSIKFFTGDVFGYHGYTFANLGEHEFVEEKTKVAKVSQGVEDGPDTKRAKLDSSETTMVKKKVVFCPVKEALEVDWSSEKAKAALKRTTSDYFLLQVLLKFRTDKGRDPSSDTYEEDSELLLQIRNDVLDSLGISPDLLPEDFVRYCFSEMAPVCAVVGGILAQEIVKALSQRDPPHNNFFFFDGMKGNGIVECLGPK
Test: SAE HTRF Enzyme Assay
Assay type: biochemical
Conditions: for IC50: class symbols A-C; for inhibition at 0.111 µM: compound concentration 0.111 μM, read-out: Percent Inhibition
Method in brief: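 SAE 0.11 nM; ATP 0.5 μM; Sumo-Flag 0.125 μM; Ubc9-GST 0.01 μM; 250 μM GSH, 5 mM MgCl2, pH 7.5. 105 min, 24° C. EDTA/KF stop plus Eu/APC antibodies, 2 h, TR-FRET. % inhibition or IC50.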

Row | SMILES | IC50 | inhibition at 0.111 µM
1 | NS(=O)(=O)OC[C@H]1C[C@@H](Nc2ncncc2C(=O)c2ccn(Cc3cccc(C(F)(F)F)c3)n2)[C@H](O)[C@@H]1O [Compound I-119, [(1R,2R,3S,4R)-2,3-dihydroxy-4-{[5-({1-[3-(trifluoromethyl)benzyl]-1H-pyrazol-3-yl}carbonyl)pyrimidin-4-yl]amino}cyclopentyl]methyl sulfamate] | < 10 nM | 98%
2 | NS(=O)(=O)OC[C@H]1C[C@@H](Nc2ncncc2C(=O)c2ccn(Cc3cccc(C4(O)COC4)n3)n2)C[C@@H]1O [Compound I-120, [(1R,2S,4R)-2-hydroxy-4-({5-[(1-{[6-(3-hydroxyoxetan-3-yl)pyridin-2-yl]methyl) 1H pyrazol-3-yl)carbonyl]pyrimidin-4-yl}amino)cyclopentyl]methyl sulfamate] | 100 to 1000 nM | 47%
3 | NS(=O)(=O)OC[C@H]1C[C@@H](Nc2ncncc2C(=O)c2ccn(Cc3ccc(F)cc3C(F)(F)F)n2)[C@H](O)[C@@H]1O [Compound I-121, [(1R,2R,3S,4R)-4-{[5-({1-[4-fluoro-2-(trifluoromethyl)benzyl]-1H-pyrazol-3-yl}carbonyl)pyrimidin-4-yl]amino}-2,3-dihydroxycyclopentyl]methyl sulfamate] | < 10 nM | 94%
4 | NS(=O)(=O)OC[C@H]1C[C@@H](Nc2ncncc2C(=O)c2ccn(Cc3ccc(F)c(Cl)c3)n2)[C@@H](F)[C@@H]1O [Compound I-122, {(1R,2R,3R,4R)-4-[(5-{[1-(3-chloro-4-fluorobenzyl)-1H-pyrazol-3-yl]carbonyl}pyrimidin-4-yl)amino]-3-fluoro-2-hydroxycyclopentyl}methyl sulfamate] | < 10 nM | 99%
5 | NS(=O)(=O)OC[C@H]1C[C@@H](Nc2ncncc2C(=O)c2ccn(Cc3cccc(F)c3)n2)[C@H](O)[C@@H]1O [Compound I-123, {(1R,2R,3S,4R)-4-[(5-{[1-(3-fluorobenzyl)-1H-pyrazol-3-yl]carbonyl}pyrimidin-4-yl)amino]-2,3-dihydroxycyclopentyl}methyl sulfamate] | < 10 nM | 100%
6 | NS(=O)(=O)OC[C@H]1C[C@@H](Nc2ccncc2C(=O)c2ccn(Cc3cccc(Cl)c3)c2)[C@@H](F)[C@@H]1O [Compound I-124, {(1R,2R,3R,4R)-4-[(3-{[1-(3-chlorobenzyl)-1H-pyrrol-3-yl]carbonyl}pyridin-4-yl)amino]-3-fluoro-2-hydroxycyclopentyl}methyl sulfamate] | < 10 nM | 97%
7 | NS(=O)(=O)OC[C@H]1C[C@@H](Nc2ncncc2C(=O)c2ccn(CC(=O)c3ccccc3)n2)[C@H](O)[C@@H]1O [Compound I-125, {(1R,2R,3S,4R)-2,3-Dihydroxy-4-[(5-{([1-(2-oxo-2-phenylethyl)-1H-pyrazol-3-yl]carbonyl}pyrimidin-4-yl)amino]cyclopentyl}methyl sulfamate] | < 10 nM | 99%
8 | NS(=O)(=O)OC[C@H]1C[C@@H](Nc2ncncc2C(=O)c2ccn(Cc3ccc(Cl)c(SC(F)(F)F)c3)n2)[C@H](O)[C@@H]1O [Compound I-126, [(1R,2R,3S,4R)-4-({5-[(1-{4-chloro-3-[(trifluoromethyl)sulfanyl]benzyl}-1H-pyrazol-3-yl)carbonyl]pyrimidin-4-yl}amino)-2,3-dihydroxycyclopentyl]methyl sultamate] | < 10 nM | > 99%
9 | NS(=O)(=O)OC[C@H]1C[C@@H](Nc2ncncc2C(=O)c2ccn(Cc3ccc(Cl)c(Br)c3)n2)[C@@H](F)[C@@H]1O [Compound I-127, {(1R,2R,3R,4R)-4-[(5-{[1-(3-bromo-4-chlorobenzyl)-1H-pyrazol-3-yl]carbonyl}pyrimidin-4-yl)amino]-3-fluoro-2-hydroxycyclopentyl}methyl sulfamate] | < 10 nM | 99%
10 | Cc1cccc(Cn2ccc(C(=O)c3cncnc3N[C@@H]3C[C@H](COS(N)(=O)=O)[C@@H](O)C3)n2)c1 [Compound I-128, {(1R,2S,4R)-2-hydroxy-4-[(5-{[1-(3-methylbenzyl)-1H-pyrazol-3-yl]carbonyl}pyrimidin-4-yl)amino]cyclopentyl}methyl sulfamate] | < 10 nM | 98%
11 | NS(=O)(=O)OC[C@H]1C[C@@H](Nc2ncncc2C(=O)c2ccn(Cc3cccc(C(F)(F)F)c3)c2)C[C@@H]1O [Compound I-129, [(1R,2S,4R)-2-hydroxy-4-{[5-({1-[3-(trifluoromethyl)benzyl]-1H-pyrrol-3-yl}carbonyl)pyrimidin-4-yl]amino}cyclopentyl]methyl sulfamate] | < 10 nM | 99%
12 | NS(=O)(=O)OC[C@H]1C[C@@H](Nc2ncncc2C(=O)c2ccn(Cc3ccc(C(F)(F)F)o3)n2)[C@H](O)[C@@H]1O [Compound I-130, [(1R,2R,3S,4R)-2,3-dihydroxy-4-({5-[(1-{[5-(trifluoromethyl)-2-furyl]methyl}-1H-pyrazol-3-yl)carbonyl]pyrimidin-4-yl}amino)cyclopentyl]methyl sulfamate] | < 10 nM | 98%
13 | NS(=O)(=O)OC[C@H]1C[C@@H](Nc2ncncc2C(=O)c2ccn(Cc3cccc(OC(F)(F)F)c3)c2)[C@@H](F)[C@@H]1O [Compound I-131, [(1R,2R,3R,4R)-3-Fluoro-2-hydroxy-4-{[5-({1-[3-(trifluoromethoxy)benzyl]-1H-pyrrol-3-yl}carbonyl)pyrimidin-4-yl]amino}cyclopentyl]methyl sulfamate] | < 10 nM | 96%
14 | NS(=O)(=O)OC[C@H]1C[C@@H](Nc2ccncc2C(=O)c2ccn(Cc3cccc(OC(F)(F)F)c3)c2)[C@@H](F)[C@@H]1O [Compound I-132, [(1R,2R,3R,4R)-3-Fluoro-2-hydroxy-4-{[3-({1-[3-(trifluoromethoxy)benzyl]-1H-pyrrol-3-yl}carbonyl)pyridin-4-yl]amino}cyclopentyl]methyl sulfamate] | 10 to 100 nM | 78%
15 | NS(=O)(=O)OC[C@H]1C[C@@H](Nc2ncncc2C(=O)c2ccn(Cc3ccc(F)c(OC(F)(F)F)c3)n2)[C@H](O)[C@@H]1O [Compound I-134, [(1R,2R,3S,4R)-4-{[5-({1-[4-fluoro-3-(trifluoromethoxy)benzyl]-1H-pyrazol-3-yl}carbonyl)pyrimidin-4-yl]amino}-2,3-dihydroxycyclopentyl]methyl sulfamate] | < 10 nM | 98%
16 | NS(=O)(=O)OC[C@H]1C[C@@H](Nc2ncncc2C(=O)c2ccn(Cc3ccccc3)n2)[C@@H](O)[C@@H]1O [Compound I-135, [(1R,2R,3R,4R)-4-({5-[(1-Benzyl-1H-pyrazol-3-yl)carbonyl]pyrimidin-4-yl}amino)-2,3-dihydroxycyclopentyl]methyl sulfamate] | 10 to 100 nM | 81%
17 | NS(=O)(=O)NC[C@H]1C[C@@H](Nc2ncncc2C(=O)c2ccn(Cc3cccc(Cl)c3)n2)[C@H](O)[C@@H]1O [Compound I-136, N-({(1R,2R,3S,4R)-4-[(5-{[1-(3-Chlorobenzyl)-1H-pyrazol-3-yl]carbonyl}pyrimidin-4-yl)amino]-2,3-dihydroxycyclopentyl}methyl)sulfuric diamide] | 10 to 100 nM | 88%
